Data set [1] is described as follows: in vitro. Particulars: human, hepatocytes.
Data set [2] can be described thus: Aqueous solubility of the compound at pH 7.4. The class given is physicochemical. The following applies: aqueous medium.
Data set [3] can be described thus: Oral bioavailability in rat. Format: ADME, organism-based. Particulars: in vivo.
The nature of data set [4]: Oral bioavailability in dog. Format: ADME, organism-based, Canis lupus familiaris. The following applies: in vivo.
A short description of data set [5]: Volume of distribution at steady state in rat. The following applies: in vivo, read-out: Vdss. The class given is ADME, organism-based.
Data set [6] is described as follows: Volume of distribution at steady state in dog. The class given is ADME, organism-based, Canis lupus familiaris. The following applies: in vivo, read-out: Vdss.
A short description of data set [7]: Clearance in dog. The following applies: in vivo. The class given is ADME, organism-based, Canis lupus familiaris.
A short description of data set [8]: Clearance in rat. Particulars: in vivo. Format: ADME, organism-based.
A short description of data set [9]: Half life in dog. Format: ADME, organism-based, Canis lupus familiaris. Particulars: in vivo.
The nature of data set [10]: Half life in rat. Format: ADME, organism-based. Particulars: in vivo.
A short description of data set [11]: Lipophilicity, log D of the compound at pH 7.4. Format: physicochemical. Particulars: buffer.
Data set [12] in a line: Dissociation constant, pKa of the compound. The class given is physicochemical.
Data set [13] in a line: Apparent permeability of the compound from apical to basolateral side across human Caco2 cells at 10 uM. The class given is ADME, cell-based. The following applies: Caco-2. In general terms: Caco-2 monolayers are a common model of the intestinal barrier.
Data set [14] can be described thus: Apparent permeability of the compound from basolateral to apical side across human Caco2 cells at 10 uM. Format: ADME, cell-based. Particulars: Caco-2.

Converted amounts (≈) assume the structure as drawn. A value given as a limit tells only on which side of the number the result lay.

`Cc1ccc(NC(=O)c2ccnc(N3CCOCC3)c2)cc1-n1cnc2ccc(N3CCN(C)CC3)cc2c1=O` yielded an intrinsic metabolic clearance (hepatocyte CLint) in [1] of 17 µL/min/1e6 cells. The compound further had a solubility in data set [2] of 300 µM (≈ 162 µg/mL).
The compound `Cc1ccc(NC(=O)c2ccnc(N3CCOCC3)c2)cc1-n1c(C)nc2ccc(N3CCN(C)CC3)cc2c1=O` returned a solubility in data set [2] of 300 µM (≈ 166 µg/mL).
Same read-out and setting: then `Cc1ccc(NC(=O)c2cccc(N3CCOCC3)c2)cc1-n1cnc2ccc(N3CCN(C)CC3)cc2c1=O`, with 300 µM (≈ 162 µg/mL).
For `Cc1ccc(NC(=O)c2ccccc2)cc1-n1cnc2ccc(N3CCN(C)CC3)cc2c1=O`, in [1], the intrinsic metabolic clearance (hepatocyte CLint) turned out to be 6 µL/min/1e6 cells.
The same measure, in the same setting: then `COc1ccccc1C(=O)Nc1ccc(C)c(-n2cnc3ccc(N4CCN(C)CC4)cc3c2=O)c1`, with 5 µL/min/1e6 cells; and `Cc1ccc(NC(=O)c2cccc(C#N)c2)cc1-n1cnc2ccc(N3CCN(C)CC3)cc2c1=O`, with less than 3 µL/min/1e6 cells.
With `Cc1ccc(NC(=O)c2ccc(C#N)cc2)cc1-n1cnc2ccc(N3CCN(C)CC3)cc2c1=O`, the bioavailability came out at 29% in data set [3] and 53% in [4]. Also, the Vd was 4.8 L/kg in data set [5] and 7.8 L/kg in data set [6].
For `Cc1ccc(NC(=O)c2ccccc2F)cc1-n1cnc2ccc(N3CCN(C)CC3)cc2c1=O`, the hepatocyte CLint in [1] was found to be 7 µL/min/1e6 cells.
`Cc1ccc(NC(=O)c2cccc(F)c2)cc1-n1cnc2ccc(N3CCN(C)CC3)cc2c1=O` gave a hepatocyte CLint in data set [1] of 11 µL/min/1e6 cells. Compared with the last compound, the hepatocyte CLint is about 1.6-fold higher.
The compound `Cc1ccc(NC(=O)c2ccno2)cc1-n1cnc2ccc(N3CCN(C)CC3)cc2c1=O` came in with a hepatocyte CLint in [1] of 5 µL/min/1e6 cells.
Same read-out and setting: in the case of `Cc1ccc(NC(=O)c2cscn2)cc1-n1cnc2ccc(N3CCN(C)CC3)cc2c1=O` it was 7 µL/min/1e6 cells; in that of `Cc1ccc(NC(=O)c2cncs2)cc1-n1cnc2ccc(N3CCN(C)CC3)cc2c1=O`, less than 3 µL/min/1e6 cells.
As for `Cc1ccc(C(=O)Nc2ccon2)cc1-n1cnc2ccc(N3CCN(C)CC3)cc2c1=O`, the clearance amounted to 19 mL/min/kg in [7] and 17 mL/min/kg in data set [8]. Further, the bioavailability in data set [3] amounted to 41%; in data set [4] it was 20%. Besides, the figures for the half-life in data set [9] and in [10] were 4 h and 1.7 h, respectively. Also, the Vd came out at 2.5 L/kg in [5] and 3.7 L/kg in data set [6].
For `Cc1ccc(C(=O)NC2CC2)cc1-n1cnc2ccc(N3CCN(C)CC3)cc2c1=O` [AZD-6703], the clearance came to 24 mL/min/kg in data set [7] and 26 mL/min/kg in data set [8]. For the same compound, the logD in [11] came to 1.6. Moreover, the bioavailability is 49% in [3] and 68% in data set [4]. In data set [12], the pKa turned out to be 7.6. In [1], the hepatocyte CLint was found to be 2 µL/min/1e6 cells. For the same compound, the Papp A→B at 10 µM in data set [13] stood at 6 ×10⁻⁶ cm/s. In data set [9], this compound gave a half-life of 1.7 h. Besides, the Vd in [5] stood at 1.9 L/kg; in [6], 3.3 L/kg. In addition, in [14], the Papp B→A at 10 µM stood at 11 ×10⁻⁶ cm/s.

The hepatocyte CLint is the capacity of the preparation to metabolise the compound, expressed as a volume cleared per time. One may read the solubility as how much of the substance goes into solution per volume. The term bioavailability denotes dose-corrected exposure relative to a reference, in per cent. A higher bioavailability goes with much systemic uptake. The clearance is the volume of plasma or blood freed of the substance per unit of time. A high value points to a high capacity for elimination. Broadly, the half-life is how long it takes for the measured level to halve. Read a low half-life as fast loss. As usually defined, the logD is the decadic logarithm of the distribution of all forms, ionised or not, between an organic phase and buffer at a given pH. The low end stands for a more hydrophilic compound, the high end for a more lipophilic compound. As a reminder, the pKa is the pH at which an ionisable group is half protonated. Read a high pKa as a group that holds its proton tightly. For orientation: Papp A→B means the apparent permeability from the apical to the basolateral side of a cell layer. Broadly, the Papp B→A is how fast a substance crosses the layer from the basolateral side.

Values taken from ChEMBL document CHEMBL2029330 (Bioorg Med Chem Lett, 2012).
